According to PubChem BioAssay (NCI):
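GI50: concentration for 50% inhibition of growth. The concentration for full growth arrest is given as TGI.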

Assays:
Experiment in all cases: NCI anticancer screen, dose series, 384-well format
MOLT-4 leukemia = test system: MOLT-4 leukemia
RXF 393 renal = test system: RXF 393 renal
SW-620 colon = test system: SW-620 colon
HCC-2998 colon = test system: HCC-2998 colon
SF-295 CNS = test system: SF-295 CNS
LOX IMVI melanoma = test system: LOX IMVI melanoma
MALME-3M melanoma = test system: MALME-3M melanoma
KM12 colon = test system: KM12 colon
SK-MEL-28 melanoma = test system: SK-MEL-28 melanoma
UO-31 renal = test system: UO-31 renal
OVCAR-5 ovarian = test system: OVCAR-5 ovarian
RPMI-8226 leukemia = test system: RPMI-8226 leukemia
SNB-75 CNS = test system: SNB-75 CNS
COLO 205 colon = test system: COLO 205 colon
IGROV1 ovarian = test system: IGROV1 ovarian
BT-549 breast = test system: BT-549 breast
PC-3 prostate = test system: PC-3 prostate
NCI-H460 NSCLC = test system: NCI-H460 NSCLC
SNB-19 CNS = test system: SNB-19 CNS
MDA-MB-231 breast = test system: MDA-MB-231 breast
HT29 colon = test system: HT29 colon
SF-539 CNS = test system: SF-539 CNS
K-562 leukemia = test system: K-562 leukemia
HL-60(TB) leukemia = test system: HL-60(TB) leukemia
MDA-MB-468 breast = test system: MDA-MB-468 breast
NCI-H23 lung = test system: NCI-H23 lung
HS 578T breast = test system: HS 578T breast
CCRF-CEM leukemia = test system: CCRF-CEM leukemia
TK-10 renal = test system: TK-10 renal
M14 melanoma = test system: M14 melanoma
NCI-H322M lung = test system: NCI-H322M lung
SN12C renal = test system: SN12C renal
HCT-15 colon = test system: HCT-15 colon
SR leukemia = test system: SR leukemia
T-47D breast = test system: T-47D breast
NCI/ADR-RES ovarian = test system: NCI/ADR-RES ovarian
NCI-H522 lung = test system: NCI-H522 lung
ACHN renal = test system: ACHN renal
SF-268 CNS = test system: SF-268 CNS
HOP-62 NSCLC = test system: HOP-62 NSCLC
SK-OV-3 ovarian = test system: SK-OV-3 ovarian
EKVX NSCLC = test system: EKVX NSCLC
SK-MEL-5 melanoma = test system: SK-MEL-5 melanoma
A498 renal = test system: A498 renal
OVCAR-8 ovarian = test system: OVCAR-8 ovarian
MCF7 breast = test system: MCF7 breast
786-0 renal = test system: 786-0 renal
A549 NSCLC = test system: A549 NSCLC
CAKI-1 renal = test system: CAKI-1 renal
OVCAR-4 ovarian = test system: OVCAR-4 ovarian
HOP-92 NSCLC = test system: HOP-92 NSCLC
MDA-MB-435 melanoma = test system: MDA-MB-435 melanoma
UACC-62 melanoma = test system: UACC-62 melanoma
OVCAR-3 ovarian = test system: OVCAR-3 ovarian
DU-145 prostate = test system: DU-145 prostate

With `O=C(NCCCc1cn[nH]c1)c1ccc(-c2ccncc2)c(C#Cc2ccc(F)cc2)c1` the GI50 (MOLT-4 leukemia) was < 10 nM, the TGI (MOLT-4 leukemia) was < 10 nM and the GI50 (RXF 393 renal) was < 10 nM. The TGI (RXF 393 renal) was < 10 nM, the GI50 (SW-620 colon) was < 10 nM and the TGI (SW-620 colon) was < 10 nM. For the same compound, the GI50 (HCC-2998 colon) was < 10 nM, the TGI (HCC-2998 colon) was < 10 nM and the GI50 (SF-295 CNS) was < 10 nM. For the same compound, the TGI (SF-295 CNS) was < 10 nM, the GI50 (LOX IMVI melanoma) was < 10 nM and the TGI (LOX IMVI melanoma) was 15.6 nM. The GI50 (MALME-3M melanoma) was < 10 nM, the TGI (MALME-3M melanoma) was < 10 nM and the GI50 (KM12 colon) was < 10 nM. For the same compound, the TGI (KM12 colon) was < 10 nM, the GI50 (SK-MEL-28 melanoma) was < 10 nM and the TGI (SK-MEL-28 melanoma) was < 10 nM. For the same compound, the GI50 (UO-31 renal) was < 10 nM, the TGI (UO-31 renal) was < 10 nM and the GI50 (OVCAR-5 ovarian) was < 10 nM. For the same compound, the TGI (OVCAR-5 ovarian) was < 10 nM, the GI50 (RPMI-8226 leukemia) was < 10 nM and the TGI (RPMI-8226 leukemia) was < 10 nM. The GI50 (SNB-75 CNS) was < 10 nM, the TGI (SNB-75 CNS) was < 10 nM and the GI50 (COLO 205 colon) was < 10 nM. The TGI (COLO 205 colon) was < 10 nM, the GI50 (IGROV1 ovarian) was < 10 nM and the TGI (IGROV1 ovarian) was < 10 nM. For the same compound, the GI50 (BT-549 breast) was < 10 nM, the TGI (BT-549 breast) was < 10 nM and the GI50 (PC-3 prostate) was < 10 nM. For the same compound, the TGI (PC-3 prostate) was < 10 nM, the GI50 (NCI-H460 NSCLC) was < 10 nM and the TGI (NCI-H460 NSCLC) was 13.5 nM. For the same compound, the GI50 (SNB-19 CNS) was < 10 nM, the TGI (SNB-19 CNS) was < 10 nM and the GI50 (MDA-MB-231 breast) was < 10 nM. The TGI (MDA-MB-231 breast) was < 10 nM, the GI50 (HT29 colon) was < 10 nM and the TGI (HT29 colon) was < 10 nM. The GI50 (SF-539 CNS) was < 10 nM, the TGI (SF-539 CNS) was < 10 nM and the GI50 (K-562 leukemia) was < 10 nM. For the same compound, the TGI (K-562 leukemia) was < 10 nM, the GI50 (HL-60(TB) leukemia) was < 10 nM and the TGI (HL-60(TB) leukemia) was < 10 nM. For the same compound, the GI50 (MDA-MB-468 breast) was < 10 nM, the TGI (MDA-MB-468 breast) was < 10 nM and the GI50 (NCI-H23 lung) was < 10 nM. The TGI (NCI-H23 lung) was < 10 nM, the GI50 (HS 578T breast) was < 10 nM and the TGI (HS 578T breast) was < 10 nM. For the same compound, the GI50 (CCRF-CEM leukemia) was < 10 nM, the TGI (CCRF-CEM leukemia) was < 10 nM and the GI50 (TK-10 renal) was < 10 nM. The TGI (TK-10 renal) was < 10 nM, the GI50 (M14 melanoma) was < 10 nM and the TGI (M14 melanoma) was < 10 nM. The GI50 (NCI-H322M lung) was < 10 nM, the TGI (NCI-H322M lung) was < 10 nM and the GI50 (SN12C renal) was < 10 nM. For the same compound, the TGI (SN12C renal) was < 10 nM, the GI50 (HCT-15 colon) was < 10 nM and the TGI (HCT-15 colon) was < 10 nM. The GI50 (SR leukemia) was < 10 nM, the TGI (SR leukemia) was < 10 nM and the GI50 (T-47D breast) was < 10 nM. The TGI (T-47D breast) was < 10 nM, the GI50 (NCI/ADR-RES ovarian) was < 10 nM and the TGI (NCI/ADR-RES ovarian) was < 10 nM. The GI50 (NCI-H522 lung) was < 10 nM, the TGI (NCI-H522 lung) was < 10 nM and the GI50 (ACHN renal) was < 10 nM. For the same compound, the TGI (ACHN renal) was < 10 nM, the GI50 (SF-268 CNS) was < 10 nM and the TGI (SF-268 CNS) was < 10 nM. The GI50 (HOP-62 NSCLC) was < 10 nM, the TGI (HOP-62 NSCLC) was < 10 nM and the GI50 (SK-OV-3 ovarian) was < 10 nM. The TGI (SK-OV-3 ovarian) was < 10 nM, the GI50 (EKVX NSCLC) was < 10 nM and the TGI (EKVX NSCLC) was < 10 nM. The GI50 (SK-MEL-5 melanoma) was < 10 nM, the TGI (SK-MEL-5 melanoma) was < 10 nM and the GI50 (A498 renal) was < 10 nM. The TGI (A498 renal) was 252 nM, the GI50 (OVCAR-8 ovarian) was < 10 nM and the TGI (OVCAR-8 ovarian) was < 10 nM. For the same compound, the GI50 (MCF7 breast) was 13 nM, the TGI (MCF7 breast) was 26.9 nM and the GI50 ([…]-0 renal) was < 10 nM. For the same compound, the TGI (786-0 renal) was < 10 nM, the GI50 (A549 NSCLC) was < 10 nM and the TGI (A549 NSCLC) was < 10 nM. For the same compound, the GI50 (CAKI-1 renal) was < 10 nM, the TGI (CAKI-1 renal) was < 10 nM and the GI50 (OVCAR-4 ovarian) was < 10 nM. The TGI (OVCAR-4 ovarian) was < 10 nM, the GI50 (HOP-92 NSCLC) was < 10 nM and the TGI (HOP-92 NSCLC) was < 10 nM. The GI50 (MDA-MB-435 melanoma) was < 10 nM, the TGI (MDA-MB-435 melanoma) was < 10 nM and the GI50 (UACC-62 melanoma) was < 10 nM. The TGI (UACC-62 melanoma) was < 10 nM, the GI50 (OVCAR-3 ovarian) was < 10 nM and the TGI (OVCAR-3 ovarian) was < 10 nM. The GI50 (DU-145 prostate) was < 10 nM and the TGI (DU-145 prostate) was < 10 nM.
